Values of other authors as cited in US20030203004A1, “Compositions comprising short and long chain fatty acids and methods of their use for the management of body weight” (priority 2002, published 2003).

Columns and labels:
[1] = rats; jejunally infused neat, 0.2 mL/hr for seven hours
[2] = rats
[3] = humans; sodium propionate included in bread; attributed to delayed gastric emptying rate

Row | SMILES | total daily caloric intake [1] | effect on gastric emptying [2] | satiety [3]
1 | CCCCC/C=C\C/C=C\CCCCCCCC(=O)O [linoleic acid] | significantly reduce |  | 
2 | CCCCCCCC/C=C\CCCCCCCC(=O)O [oleic acid] | significantly reduce |  | 
3 | CCC(=O)[O-].[Na+] [sodium propionate] |  | no effect | induction of satiety
